From patent US20240300905A1, “Quinazoline Compounds and Uses” (Prosetta Biosciences, Inc., priority 2023, published 2024)

These compounds were tested on Hennes-20 cells (assay: Hennes-20 oncology screen (low vs high plating density, alamar Blue)). Settings: 72 h.
Assay type: cell-based
Description: All compounds mentioned as active were tested in Hennes. Select hits from the Hennes screen were sent for additional anti-cancer testing.
To screen compounds for oncology activity Hennes-20 cells were plated at low (500 cells/well) versus high (15,000 cells/well) densities and treated with DMSO (vehicle) or dose-titration of compounds. The rationale for this screen is that an intrinsically toxic compound should kill cells regardless of density, including in Hennes-20 cells. However, a compound that selectively triggers the arrest of proliferation will inhibit cell growth when plated at a low density will appear cytotoxic due to inhibition of cell growth when plated at a low density but will appear non-toxic to cells plated at a high density where the cells are approaching confluence and the readout detected by a cell viability assay is already close to the maximum.
To conduct the Hennes-20 screen, two 96 well plates were seeded with Hennes 20 cells in parallel where one was plated at a density of 500 cells/well and the other was plated at a density of 15,000 cells/well. 90 uL of minimum essential media was added to each well and plates were placed in a 37 degrees Celsius incubator for 24 hours. The next day, 10 ul of media containing dilutions of compound in DMSO were added to each plate. Six wells on each plate received 10 ul of media containing only DMSO. Each well was gently mixed 5 times with a 100 ul pipette. Plates were incubated at 37 degrees Celsius for 72 hours then 10 uL of alamar Blue was added to each well. Wells were mixed 5 times then incubated at 37 degrees Celsius for […]. Plates were then read at 530/590.
The rationale for the screen is as follows: Hennes-20 cells lack endogenous apoptosis. Cells plated at low density will proliferate and approach confluence in 72 hrs. A drug that arrests proliferation may have its proliferation blocking effect masked by the triggering of endogenous apoptosis. However, in the Hennes line, lacking endogenous apoptosis, such an arrest is manifest as a dose-dependent maintenance at low cell density. Since the high-density cells are plated close to confluence, the difference between Alamar Blue cell survival readings after 72 hrs reflects the ability of the drug to block proliferation in the low density-plated cells. In the high density-plated cells any diminution of Alamar Blue readout vs vehicle control is due to intrinsic toxicity, not proliferation arrest, since cells were already at confluence. Thus, a compound that appears toxic (low Alamar Blue readings after 72 hrs) on the low-density plate, but which appears non-toxic (high Alamar Blue readings after 72 hrs) on the high-density plate, must be arresting proliferation, since intrinsic compound toxicity should be observed at both low and high cell densities, not selectively on the low-density plate.

`CCCCNc1ncnc2cc(N3CCN(c4cc(NCCC(C)C)c5cncnc5c4)C(C)C3)ccc12` (centres unmarked) [Compound 67] gave an EC50 of 500 nM.

Same assay, conditions: 72 h, Hennes-20 cells, 72 hours compound incubation, alamar Blue; read-out: EC50

Point of comparison: `CC(C)CCNc1ncnc2cc(N3CCN(c4ccc5c(NCCc6nccs6)ncnc5c4)CC3)ccc12` [Compound 81], EC50 500 nM. Against it:
- CCCCNc1ncnc2cc(N3CCN(c4ccc5c(NCCc6ccccc6)ncnc5c4)CC3)ccc12 [Compound 56] — 25-fold higher, 12500 nM
- CCCCNc1ncnc2cc(N3CCN(c4ccc5c(NCCN6CCN(C)CC6)ncnc5c4)CC3)ccc12 [Compound 71] — higher, > 2500 nM
- CC(C)(C)CNc1ncnc2cc(N3CCN(c4ccc5c(N6CCC(C)(C)CC6)ncnc5c4)CC3)ccc12 [Compound 74] — the same, 500 nM
- CCCCNc1ncnc2cc(N(CC)CCN(C)c3ccc4c(NCCC(C)C)ncnc4c3)ccc12 [Compound 92] — 5-fold higher, 2500 nM
- CCN(CCN(C)c1ccc2c(NCCC(C)C)ncnc2c1)c1ccc2c(NCCC(C)C)ncnc2c1 [Compound 96] — not separable, < 2500 nM
- CCCCNc1ncnc2cc(N3CCN(c4ccc5c(N6CCC(C)(C)CC6)ncnc5c4)CC3)ccc12 [Compound 70] — the same, 500 nM
- CC(C)CCNc1ncnc2cc(N(C)CCN(C)c3ccc4c(NCC(C)(C)C)ncnc4c3)ccc12 [Compound 90] — 5-fold higher, 2500 nM
- CCCCNc1ncnc2cc(N(C)CCN(C)c3ccc4c(NCCCC)ncnc4c3)ccc12 [Compound 89] — the same, 500 nM
- CC(C)CCNc1ncnc2cc(N3CCN(c4ccc5c(NCCc6ccccn6)ncnc5c4)CC3)ccc12 [Compound 84] — the same, 500 nM
- CC(C)CCNc1ncnc2cc(N3CCN(c4ccc5c(NCCCN(C)C)ncnc5c4)CC3)ccc12 [Compound 31] — not separable, < 12500 nM
- CC(C)CCN(C)c1ncnc2cc(N3CCN(c4ccc5c(NCCC6CCNCC6)ncnc5c4)CC3)ccc12 [Compound 62] — higher, > 12500 nM
- CCCCNc1ncnc2cc(N(C)CCCN(C)c3ccc4c(NCCC(C)C)ncnc4c3)ccc12 [Compound 98] — not separable, < 2500 nM
- CC(C)(C)CNc1ncnc2cc(N3CCN(c4ccc5c(NCCC6CCNCC6)ncnc5c4)CC3)ccc12 [Compound 59] — higher, > 12500 nM
- CCCCNc1ncnc2cc(N3CCN(c4ccc5c(NCCC6CCNCC6)ncnc5c4)CC3)ccc12 [Compound 57] — higher, > 12500 nM
- CC(C)CCNc1ncnc2cc(N3CCN(c4ccc5c(NCCN6CCN(C)CC6)ncnc5c4)CC3)ccc12 [Compound 82] — not separable, < 12500 nM
- CC(C)(C)CNc1ncnc2cc(N3CCN(c4ccc5c(NCCc6ccccc6)ncnc5c4)CC3)ccc12 [Compound 58] — 25-fold higher, 12500 nM
- CC(C)CCNc1cc(N2CCN(c3ccc4c(NCC(C)(C)C)ncnc4c3)CC2C)cc2ncncc12 (centres unmarked) [Compound 66] — 5-fold higher, 2500 nM
- CCN(CCN(C)c1ccc2c(NCC(C)(C)C)ncnc2c1)c1ccc2c(NCCC(C)C)ncnc2c1 [Compound 94] — not separable, < 2500 nM
- CCCCNc1ncnc2cc(N3CCN(c4ccc5c(NCCC(C)C)ncnc5c4)C(C)C3C)ccc12 (centres unmarked) [Compound 52] — 5-fold higher, 2500 nM
- CC(C)(C)CNc1ncnc2cc(N3CCN(c4ccc5c(NCCc6ccccn6)ncnc5c4)CC3)ccc12 [Compound 68] — the same, 500 nM
- CN1CCN(CCNc2ncnc3cc(N4CCN(c5ccc6c(NCC(C)(C)C)ncnc6c5)CC4)ccc23)CC1 [Compound 75] — higher, > 2500 nM
- CC(C)CCNc1ncnc2cc(N3CCN(c4ccc5c(NCCc6ccncc6)ncnc5c4)CC3)ccc12 [Compound 85] — not separable, < 12500 nM
- CC(C)CCNc1ncnc2cc(N3CCN(c4ccc5c(NCCC(C)C)ncnc5c4)C(C)C3C)ccc12 (centres unmarked) [Compound 55] — the same, 500 nM
- CCCCNc1ncnc2cc(N3CCN(c4ccc5c(NCCC(C)C)ncnc5c4)CC3)ccc12 [Compound 22] — lower, < 500 nM
- CC(C)CCNc1ncnc2cc(N3CC(C)N(c4ccc5c(NCCC(C)C)ncnc5c4)CC3C)ccc12 (centres unmarked) [Compound 54] — 5-fold higher, 2500 nM
- CC(C)CCNc1ncnc2cc(N3CCN(c4ccc5c(NCCc6cccnc6)ncnc5c4)CC3)ccc12 [Compound 83] — not separable, < 2500 nM
- CC(C)CNc1ncnc2cc(N3CCN(c4ccc5c(NCCC6CCNCC6)ncnc5c4)CC3)ccc12 [Compound 63] — higher, > 12500 nM
- CCCCNc1ncnc2cc(N(C)CCN(C)c3ccc4c(NCCC(C)C)ncnc4c3)ccc12 [Compound 91] — 5-fold higher, 2500 nM
- CC(C)CCNc1ncnc2cc(N3CCN(c4ccc5c(NCC(C)C)ncnc5c4)CC3)ccc12 [Compound 8] — lower, < 500 nM
- CC(C)CCN(C)c1ncnc2cc(N3CCN(c4ccc5c(NCCc6ccncc6)ncnc5c4)CC3)ccc12 [Compound 61] — 5-fold higher, 2500 nM
- CCCCNc1ncnc2cc(N3CCN(c4ccc5c(NCCc6ccncc6)ncnc5c4)CC3)ccc12 [Compound 73] — 5-fold higher, 2500 nM
- CCCCNc1ncnc2cc(N(CC)CCN(CC)c3ccc4c(NCCC(C)C)ncnc4c3)ccc12 [Compound 87] — 5-fold higher, 2500 nM
- CCCCNc1ncnc2cc(N3CCN(c4ccc5c(NCCc6ccccn6)ncnc5c4)CC3)ccc12 [Compound 69] — the same, 500 nM
- CC(C)CCNc1ncnc2cc(N(C)CCCN(C)c3ccc4c(NCCC(C)C)ncnc4c3)ccc12 [Compound 99] — not separable, < 12500 nM
- CCCCNc1ncnc2cc(N(C)CCN(CC)c3ccc4c(NCCCC)ncnc4c3)ccc12 [Compound 93] — not separable, < 2500 nM
- CCCCNc1ncnc2cc(N(C)CCN(CC)c3ccc4c(NCCC(C)C)ncnc4c3)ccc12 [Compound 95] — not separable, < 2500 nM
- CC(C)CCNc1ncnc2cc(N3CCN(c4ccc5c(NCCC6CCCC6)ncnc5c4)CC3)ccc12 [Compound 80] — the same, 500 nM
- CC(C)CNc1ncnc2cc(N3CCN(c4ccc5c(NCCc6ccncc6)ncnc5c4)CC3)ccc12 [Compound 65] — 5-fold higher, 2500 nM
- CCCCNc1ncnc2cc(N3CCN(c4ccc5c(NCCC(C)C)ncnc5c4)CC3C)ccc12 (centres unmarked) [Compound 51] — the same, 500 nM
- CCCCNc1ncnc2cc(N3CCN(c4ccc5c(NCCCC)ncnc5c4)C(C)C3)ccc12 (centres unmarked) [Compound 53] — the same, 500 nM
- CC(C)CNc1ncnc2cc(N3CCN(c4ccc5c(NCCc6ccccc6)ncnc5c4)CC3)ccc12 [Compound 64] — 5-fold higher, 2500 nM
- CCCCNc1ncnc2cc(N3CCN(c4ccc5c(NCCc6cccnc6)ncnc5c4)CC3)ccc12 [Compound 72] — 5-fold higher, 2500 nM
- CC(C)(C)CNc1ncnc2cc(N3CCN(c4ccc5c(NCCc6ccncc6)ncnc5c4)CC3)ccc12 [Compound 77] — not separable, < 12500 nM
- CCN(CCN(CC)c1ccc2c(NCC(C)(C)C)ncnc2c1)c1ccc2c(NCCC(C)C)ncnc2c1 [Compound 86] — not separable, < 2500 nM
- CC(C)CCN(C)c1ncnc2cc(N3CCN(c4ccc5c(NCCc6ccccc6)ncnc5c4)CC3)ccc12 [Compound 60] — 5-fold higher, 2500 nM
- CC(C)(C)CNc1ncnc2cc(N3CCN(c4ccc5c(NCCc6cccnc6)ncnc5c4)CC3)ccc12 [Compound 76] — 5-fold higher, 2500 nM
- CC(C)CCNc1ncnc2cc(N3CCN(c4ccc5c(NC(C)C)ncnc5c4)CC3)ccc12 [Compound 29] — lower, < 500 nM
- CCN(CCN(CC)c1ccc2c(NCCC(C)C)ncnc2c1)c1ccc2c(NCCC(C)C)ncnc2c1 [Compound 88] — not separable, < 12500 nM
- CC(C)CCNc1ncnc2cc(N3CCN(c4ccc5c(NCC(C)(C)C)ncnc5c4)CC3)ccc12 [Compound 24] — lower, < 500 nM

Same assay, conditions: Hennes-20 cells, 72 hours compound incubation, alamar Blue; read-out: EC50

Work on `CC(C)CCNc1ncnc2cc(N3CCN(c4ccc5c(N(C)CC(C)C)ncnc5c4)CC3)ccc12` [Compound 23] yielded an EC50 of under 2500 nM.
`CC(C)CCNc1ncnc2cc(N3CCN(c4ccc5c(N(C)CC(C)C)ncnc5c4)CC3)ccc12` [Compound 7] gave an EC50 of under 500 nM.
